Source: publication PMC11990191, “Pharmacochemical Studies of Synthesized Coumarin–Isoxazole–Pyridine Hybrids” (Molecules, 2025)

Target: T1, soybean lipoxygenase (sLOX) (Glycine max, UniProt P08170)
T1 construct: gene LOX1.1
T1 sequence (P08170 1-839): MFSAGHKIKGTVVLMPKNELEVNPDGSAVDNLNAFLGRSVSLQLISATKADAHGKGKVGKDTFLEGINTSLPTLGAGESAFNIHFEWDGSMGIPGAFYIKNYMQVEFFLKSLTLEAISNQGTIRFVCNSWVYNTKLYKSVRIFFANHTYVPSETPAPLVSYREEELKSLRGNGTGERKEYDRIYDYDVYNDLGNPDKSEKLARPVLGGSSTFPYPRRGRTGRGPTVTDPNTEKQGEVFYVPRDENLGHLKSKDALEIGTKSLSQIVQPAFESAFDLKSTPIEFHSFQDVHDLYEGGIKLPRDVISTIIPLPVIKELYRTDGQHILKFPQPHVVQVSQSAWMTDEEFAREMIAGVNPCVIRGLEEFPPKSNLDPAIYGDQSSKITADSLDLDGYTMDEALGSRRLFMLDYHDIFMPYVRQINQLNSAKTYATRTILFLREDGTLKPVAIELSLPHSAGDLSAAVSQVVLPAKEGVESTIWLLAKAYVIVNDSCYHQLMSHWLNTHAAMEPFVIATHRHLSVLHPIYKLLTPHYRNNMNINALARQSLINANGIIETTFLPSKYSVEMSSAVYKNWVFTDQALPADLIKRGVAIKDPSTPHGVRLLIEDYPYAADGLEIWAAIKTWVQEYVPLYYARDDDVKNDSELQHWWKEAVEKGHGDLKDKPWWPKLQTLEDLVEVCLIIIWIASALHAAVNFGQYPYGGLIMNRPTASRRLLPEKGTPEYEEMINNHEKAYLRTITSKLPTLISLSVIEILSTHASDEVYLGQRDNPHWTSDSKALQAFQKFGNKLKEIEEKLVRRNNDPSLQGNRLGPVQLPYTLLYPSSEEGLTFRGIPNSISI
Assay: UV absorbance enzyme assay at […] nm, sodium linoleate substrate, pH […]
Type: biochemical
Conditions: read-out: LOX(%)/ IC50

| SMILES | IC50 |
| --- | --- |
| O=c1ccc2ccc(OCc3cc(-c4cccnc4)no3)cc2o1 [7a, 7-((3-(Pyridin-3-yl)isoxazol-5-yl)methoxy)-2H-chromen-2-one] | 10 µM |
| O=c1cc(OCc2cc(-c3ccncc3)no2)c2ccccc2o1 [13a, 4-((3-(Pyridin-4-yl)isoxazol-5-yl)methoxy)-2H-chromen-2-one] | 5 µM |
